Our source for the inhibition values is ChEMBL document CHEMBL4507266, “Data for DCP probe BAY-784” (2021).

In data set [1] the target is CYP3A4 (Homo sapiens, UniProt P08684). Briefly: CYP450, 3A4 Eurofins-Panlabs enzyme assay. The conditions noted are these: compound concentration 10 uM.
In data set [2] the target is Vasoactive intestinal polypeptide receptor 1 (Homo sapiens) (UniProt P32241). Briefly: Inhibition of Vasoactive Intestinal Peptide VIP1 at 10 µM in the Eurofins-Panlabs radioligand binding assay (Eurofins_assay_287010). The conditions noted are these: Compound concentration 10.0 uM.
Chain of Vasoactive intestinal polypeptide receptor 1 (Homo sapiens) (P32241 whole entry): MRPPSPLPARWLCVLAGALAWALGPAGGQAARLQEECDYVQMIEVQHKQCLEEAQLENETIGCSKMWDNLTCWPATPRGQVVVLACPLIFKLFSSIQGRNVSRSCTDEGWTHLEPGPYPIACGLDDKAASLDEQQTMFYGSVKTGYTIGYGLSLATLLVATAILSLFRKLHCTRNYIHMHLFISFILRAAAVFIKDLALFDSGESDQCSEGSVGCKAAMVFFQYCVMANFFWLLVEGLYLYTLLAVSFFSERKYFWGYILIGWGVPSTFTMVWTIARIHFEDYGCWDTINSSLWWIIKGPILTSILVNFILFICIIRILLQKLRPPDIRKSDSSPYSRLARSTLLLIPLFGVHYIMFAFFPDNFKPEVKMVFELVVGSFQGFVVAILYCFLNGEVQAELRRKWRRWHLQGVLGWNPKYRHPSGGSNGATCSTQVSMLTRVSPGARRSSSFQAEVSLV
Data set [3] has as its target Neutrophil elastase (Homo sapiens) (UniProt P08246). Briefly: Peptidase, ELA2 (Neutrophil Elastase 2) Eurofins-Panlabs enzyme assay. To be noted: Compound concentration 30.0 uM.
Data set [4] concerns the target Estrogen receptor (Homo sapiens) (UniProt P03372). The conditions noted are these: Compound concentration 10.0 uM.
Data set [5] has as its target T1, Alpha-1D adrenergic receptor (Homo sapiens) (UniProt P25100).
T1 sequence (whole entry): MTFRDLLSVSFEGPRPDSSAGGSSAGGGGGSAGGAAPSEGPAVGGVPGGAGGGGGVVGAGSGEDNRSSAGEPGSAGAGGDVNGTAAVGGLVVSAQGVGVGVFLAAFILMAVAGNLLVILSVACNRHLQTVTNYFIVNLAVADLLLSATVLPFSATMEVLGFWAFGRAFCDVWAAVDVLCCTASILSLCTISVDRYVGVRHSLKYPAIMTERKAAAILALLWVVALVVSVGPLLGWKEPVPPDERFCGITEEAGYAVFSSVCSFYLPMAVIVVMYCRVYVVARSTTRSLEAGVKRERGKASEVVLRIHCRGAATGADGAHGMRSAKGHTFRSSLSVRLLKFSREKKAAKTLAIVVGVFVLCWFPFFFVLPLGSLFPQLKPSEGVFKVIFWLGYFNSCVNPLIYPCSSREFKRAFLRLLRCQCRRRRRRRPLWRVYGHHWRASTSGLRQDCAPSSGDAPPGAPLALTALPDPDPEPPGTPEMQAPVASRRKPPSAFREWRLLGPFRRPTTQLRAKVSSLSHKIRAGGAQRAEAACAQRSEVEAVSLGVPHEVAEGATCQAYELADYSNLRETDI
Briefly: Inhibition of Adrenergic alpha1D at 10 µM in the Eurofins-Panlabs radioligand binding assay (Eurofins_assay_203400). To be noted: Compound concentration 10.0 uM.

The target in data set [6] is Sigma intracellular receptor 2 (Homo sapiens, UniProt Q5BJF2). Briefly: Inhibition of Sigma 2 at 10 µM in the Eurofins-Panlabs radioligand binding assay (Eurofins_assay_278200). Further details: ligand concentration 3 nM; call rule not given here. The conditions noted are these: Rattus norvegicus; Compound concentration 10.0 uM.
Chain of Sigma intracellular receptor 2 (Q5BJF2 whole entry): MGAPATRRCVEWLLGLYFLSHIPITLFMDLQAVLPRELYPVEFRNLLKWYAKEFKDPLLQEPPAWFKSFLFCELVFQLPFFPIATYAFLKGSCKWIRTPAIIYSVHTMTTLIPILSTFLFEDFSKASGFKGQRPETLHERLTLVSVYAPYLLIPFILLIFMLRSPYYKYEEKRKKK
In data set [7] the target is GABA-A receptor; anion channel (Rattus norvegicus) (UniProt O09028+P15431+P18506+P18508+P19969+P20236+P23574+P23576+P28471+P28473+P30191+P62813+P63079+P63138+Q91ZM7+Q9ES14). The conditions noted are these: Compound concentration 10.0 uM.
For data set [8], the target named is T2, Muscarinic acetylcholine receptor M2 (Homo sapiens) (UniProt P08172).
T2 sequence (whole entry): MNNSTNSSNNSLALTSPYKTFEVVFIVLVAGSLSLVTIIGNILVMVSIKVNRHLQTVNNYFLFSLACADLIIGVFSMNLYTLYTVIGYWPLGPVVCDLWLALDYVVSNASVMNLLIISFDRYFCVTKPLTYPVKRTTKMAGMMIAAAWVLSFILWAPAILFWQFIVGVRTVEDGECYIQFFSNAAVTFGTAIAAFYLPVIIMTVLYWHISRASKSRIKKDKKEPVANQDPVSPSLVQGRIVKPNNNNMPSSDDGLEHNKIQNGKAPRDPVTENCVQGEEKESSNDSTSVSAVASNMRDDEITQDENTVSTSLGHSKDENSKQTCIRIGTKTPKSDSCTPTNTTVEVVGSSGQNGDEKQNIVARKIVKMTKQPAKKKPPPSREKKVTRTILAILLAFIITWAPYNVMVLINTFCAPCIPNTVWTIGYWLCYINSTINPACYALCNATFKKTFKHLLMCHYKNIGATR
The conditions noted are these: Compound concentration 10.0 uM.

Data set [9] is filed under the species Rattus norvegicus. Briefly: Inhibition of Imidazoline I2, Central at 10 µM in the Eurofins-Panlabs radioligand binding assay (Eurofins_assay_241000). On the set-up: ligand concentration 2 nM. To be noted: Compound concentration 10.0 uM.
Data set [10] deals with T3, D(4) dopamine receptor (Homo sapiens) (UniProt P21917).
T3 sequence (whole entry): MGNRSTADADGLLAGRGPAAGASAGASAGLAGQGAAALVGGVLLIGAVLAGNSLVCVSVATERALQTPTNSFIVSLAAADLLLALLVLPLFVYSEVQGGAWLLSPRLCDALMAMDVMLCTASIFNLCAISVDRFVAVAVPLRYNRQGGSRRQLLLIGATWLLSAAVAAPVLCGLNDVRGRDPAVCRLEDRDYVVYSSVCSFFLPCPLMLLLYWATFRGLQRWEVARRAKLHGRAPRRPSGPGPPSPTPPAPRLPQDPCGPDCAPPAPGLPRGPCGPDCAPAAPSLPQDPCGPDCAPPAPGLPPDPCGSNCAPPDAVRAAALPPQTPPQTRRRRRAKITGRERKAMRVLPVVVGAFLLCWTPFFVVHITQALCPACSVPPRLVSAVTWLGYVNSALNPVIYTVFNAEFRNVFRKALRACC
Briefly: Inhibition of Dopamine D4.2 at 10 µM in the Eurofins-Panlabs radioligand binding assay (Eurofins_assay_219900). On the set-up: ligand concentration 0.5 nM. To be noted: Compound concentration 10.0 uM.

Data set [11] has as its target T4, Alpha-2C adrenergic receptor (Homo sapiens) (UniProt P18825).
T4 sequence (whole entry): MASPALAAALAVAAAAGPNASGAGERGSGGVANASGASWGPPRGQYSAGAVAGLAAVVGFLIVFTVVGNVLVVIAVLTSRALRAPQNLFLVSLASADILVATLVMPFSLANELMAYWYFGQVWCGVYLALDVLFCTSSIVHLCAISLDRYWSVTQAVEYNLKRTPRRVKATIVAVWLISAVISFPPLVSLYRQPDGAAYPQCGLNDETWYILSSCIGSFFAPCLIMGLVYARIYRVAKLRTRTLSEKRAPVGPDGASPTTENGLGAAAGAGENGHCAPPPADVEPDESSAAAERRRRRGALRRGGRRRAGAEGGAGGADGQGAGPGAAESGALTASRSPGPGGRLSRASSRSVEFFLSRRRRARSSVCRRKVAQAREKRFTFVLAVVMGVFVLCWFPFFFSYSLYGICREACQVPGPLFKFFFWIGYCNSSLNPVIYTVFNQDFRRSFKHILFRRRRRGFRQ
Briefly: Adrenergic alpha2C Eurofins-Panlabs radioligand binding assay. On the set-up: ligand concentration 1 nM, non-specific ligand with concentration 10 µM WB-4101, incubation time 60 min, incubation temperature 25 °C. To be noted: Compound concentration 10.0 uM.

In data set [12] the target is Substance-P receptor (Homo sapiens) (UniProt P25103). Briefly: Inhibition of Tachykinin NK1 at 10 µM in the Eurofins-Panlabs radioligand binding assay (Eurofins_assay_255520). Further details: ligand concentration 0.8 nM. To be noted: Compound concentration 10.0 uM.
Chain of Substance-P receptor (Homo sapiens) (P25103 whole entry): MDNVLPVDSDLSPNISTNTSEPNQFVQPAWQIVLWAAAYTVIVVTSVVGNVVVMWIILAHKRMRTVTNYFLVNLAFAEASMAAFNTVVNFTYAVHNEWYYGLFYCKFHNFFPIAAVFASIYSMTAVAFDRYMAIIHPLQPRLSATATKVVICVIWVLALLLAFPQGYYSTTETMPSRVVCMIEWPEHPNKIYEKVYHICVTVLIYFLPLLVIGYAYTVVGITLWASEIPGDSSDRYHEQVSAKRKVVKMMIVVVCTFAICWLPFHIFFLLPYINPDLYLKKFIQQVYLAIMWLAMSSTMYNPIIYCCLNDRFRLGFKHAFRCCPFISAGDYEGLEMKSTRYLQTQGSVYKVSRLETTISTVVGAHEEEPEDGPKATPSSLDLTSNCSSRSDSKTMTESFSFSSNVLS
For data set [13], the target named is Receptor-type tyrosine-protein phosphatase C (Homo sapiens) (UniProt P08575). Briefly: Inhibition of Protein Tyrosine Phosphatase, PTPRC (CD45) at 10 µM in the Eurofins-Panlabs enzyme assay (Eurofins_assay_190010). To be noted: Compound concentration 10.0 uM.
Chain of Receptor-type tyrosine-protein phosphatase C (Homo sapiens) (P08575 whole entry): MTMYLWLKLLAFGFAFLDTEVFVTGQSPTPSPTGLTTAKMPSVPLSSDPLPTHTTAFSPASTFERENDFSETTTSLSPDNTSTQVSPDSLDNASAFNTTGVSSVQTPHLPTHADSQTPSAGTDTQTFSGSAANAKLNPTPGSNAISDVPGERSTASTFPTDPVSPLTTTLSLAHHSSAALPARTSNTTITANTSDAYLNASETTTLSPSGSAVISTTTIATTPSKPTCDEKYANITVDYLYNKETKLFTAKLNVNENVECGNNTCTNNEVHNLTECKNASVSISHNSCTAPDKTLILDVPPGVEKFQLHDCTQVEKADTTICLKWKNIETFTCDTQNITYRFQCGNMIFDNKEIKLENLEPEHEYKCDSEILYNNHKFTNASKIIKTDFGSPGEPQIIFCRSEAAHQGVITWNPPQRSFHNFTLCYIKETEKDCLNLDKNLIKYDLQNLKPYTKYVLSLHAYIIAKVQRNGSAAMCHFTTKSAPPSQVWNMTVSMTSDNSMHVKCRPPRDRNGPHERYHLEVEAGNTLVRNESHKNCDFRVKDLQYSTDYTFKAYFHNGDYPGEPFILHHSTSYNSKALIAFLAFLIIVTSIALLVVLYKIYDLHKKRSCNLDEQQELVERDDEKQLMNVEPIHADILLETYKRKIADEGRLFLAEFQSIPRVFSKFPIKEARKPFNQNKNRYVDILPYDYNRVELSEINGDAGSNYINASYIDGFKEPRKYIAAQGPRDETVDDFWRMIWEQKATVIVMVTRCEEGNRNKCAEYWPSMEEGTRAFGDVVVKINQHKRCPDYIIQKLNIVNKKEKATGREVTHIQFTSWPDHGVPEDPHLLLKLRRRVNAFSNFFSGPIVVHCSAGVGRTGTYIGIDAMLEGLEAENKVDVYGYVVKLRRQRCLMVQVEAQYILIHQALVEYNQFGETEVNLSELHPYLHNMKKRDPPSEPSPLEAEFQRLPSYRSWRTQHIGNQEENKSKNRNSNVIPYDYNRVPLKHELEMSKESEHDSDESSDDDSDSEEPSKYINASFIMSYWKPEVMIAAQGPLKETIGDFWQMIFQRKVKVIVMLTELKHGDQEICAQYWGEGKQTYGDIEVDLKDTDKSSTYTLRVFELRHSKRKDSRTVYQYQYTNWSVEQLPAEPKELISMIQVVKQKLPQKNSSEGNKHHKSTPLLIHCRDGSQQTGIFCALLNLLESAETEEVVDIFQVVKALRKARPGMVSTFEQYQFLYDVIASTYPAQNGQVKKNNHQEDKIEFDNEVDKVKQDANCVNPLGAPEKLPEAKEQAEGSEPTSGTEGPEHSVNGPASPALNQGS
Data set [14] concerns the target Neutrophil elastase (Homo sapiens) (UniProt P08246). Briefly: Inhibition of Peptidase, ELA2 (Neutrophil Elastase 2) at 10 µM in the Eurofins-Panlabs enzyme assay (Eurofins_assay_166010). The conditions noted are these: Compound concentration 10.0 uM.
For data set [15], the target named is D(2) dopamine receptor (Homo sapiens) (UniProt P14416). To be noted: Compound concentration 10.0 uM.
Chain of D(2) dopamine receptor (Homo sapiens) (P14416 whole entry): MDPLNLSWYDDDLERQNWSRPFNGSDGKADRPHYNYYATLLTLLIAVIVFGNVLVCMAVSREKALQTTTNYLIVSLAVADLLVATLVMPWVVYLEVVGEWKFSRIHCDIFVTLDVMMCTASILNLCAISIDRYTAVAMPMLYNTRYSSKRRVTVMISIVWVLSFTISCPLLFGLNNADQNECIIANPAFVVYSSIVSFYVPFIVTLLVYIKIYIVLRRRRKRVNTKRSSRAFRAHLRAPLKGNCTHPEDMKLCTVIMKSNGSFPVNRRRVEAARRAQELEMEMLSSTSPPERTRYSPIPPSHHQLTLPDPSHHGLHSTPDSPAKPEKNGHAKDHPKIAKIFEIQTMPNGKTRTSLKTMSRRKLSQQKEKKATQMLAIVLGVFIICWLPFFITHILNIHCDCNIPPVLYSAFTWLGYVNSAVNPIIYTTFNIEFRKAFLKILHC

Chain of Neutrophil elastase (Homo sapiens) (P08246 whole entry): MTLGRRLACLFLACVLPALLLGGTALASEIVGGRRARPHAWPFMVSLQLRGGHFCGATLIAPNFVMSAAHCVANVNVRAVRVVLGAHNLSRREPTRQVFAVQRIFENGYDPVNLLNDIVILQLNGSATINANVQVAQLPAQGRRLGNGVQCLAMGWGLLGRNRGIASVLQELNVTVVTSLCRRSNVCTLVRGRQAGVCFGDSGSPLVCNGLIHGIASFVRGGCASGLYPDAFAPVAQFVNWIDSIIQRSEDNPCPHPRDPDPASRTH
Chain of CYP3A4 (P08684 whole entry): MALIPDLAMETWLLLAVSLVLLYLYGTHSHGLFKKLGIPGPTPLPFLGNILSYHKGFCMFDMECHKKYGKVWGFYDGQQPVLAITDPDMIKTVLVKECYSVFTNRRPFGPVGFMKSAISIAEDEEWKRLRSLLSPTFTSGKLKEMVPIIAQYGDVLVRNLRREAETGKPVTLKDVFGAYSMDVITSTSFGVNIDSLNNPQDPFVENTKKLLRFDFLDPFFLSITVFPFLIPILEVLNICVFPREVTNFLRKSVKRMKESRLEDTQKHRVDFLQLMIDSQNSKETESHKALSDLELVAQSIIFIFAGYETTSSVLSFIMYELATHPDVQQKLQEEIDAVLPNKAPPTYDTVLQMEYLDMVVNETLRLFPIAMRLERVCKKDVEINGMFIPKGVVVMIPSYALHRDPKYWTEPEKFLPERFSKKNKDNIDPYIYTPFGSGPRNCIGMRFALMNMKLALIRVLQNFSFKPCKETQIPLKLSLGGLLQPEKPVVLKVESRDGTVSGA
Chain of Estrogen receptor (Homo sapiens) (P03372 whole entry): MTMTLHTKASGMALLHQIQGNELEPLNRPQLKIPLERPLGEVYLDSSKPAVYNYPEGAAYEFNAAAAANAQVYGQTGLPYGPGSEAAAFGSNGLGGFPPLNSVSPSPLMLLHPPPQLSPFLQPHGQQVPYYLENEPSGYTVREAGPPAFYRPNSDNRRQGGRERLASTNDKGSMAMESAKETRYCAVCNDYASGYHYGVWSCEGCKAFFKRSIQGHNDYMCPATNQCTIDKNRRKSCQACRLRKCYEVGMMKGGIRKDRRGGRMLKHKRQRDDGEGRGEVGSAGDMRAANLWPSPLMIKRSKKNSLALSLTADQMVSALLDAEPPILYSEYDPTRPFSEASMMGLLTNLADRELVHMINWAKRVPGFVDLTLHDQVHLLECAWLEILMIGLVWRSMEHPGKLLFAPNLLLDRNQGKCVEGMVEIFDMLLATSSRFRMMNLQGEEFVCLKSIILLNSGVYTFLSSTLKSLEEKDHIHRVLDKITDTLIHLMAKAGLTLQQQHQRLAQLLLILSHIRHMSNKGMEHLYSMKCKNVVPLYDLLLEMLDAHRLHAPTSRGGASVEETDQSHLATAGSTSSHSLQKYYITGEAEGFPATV

By inhibition is commonly meant the change of the read-out against control, counted positive when it falls. As for `O=C(NCc1ncc(C(F)(F)F)cc1Cl)c1ccc2c(c1)C1(CCS(=O)(=O)CC1)[C@H](C1CC1)N2S(=O)(=O)c1ccc(F)cc1` [BAY-784], in data set [1], the inhibition at 10 µM is 38% (not active). In addition, the inhibition in data set [2] is 2%; in [3], 4%; in [4], 21%; in data set [5], 18%; in [6], 20%; in data set [7], -1%. Further, the inhibition is -3% in data set [8]; 10% in [9]; 11% in data set [10]; 3% in data set [11]; 26% in [12]; -5% in [13]. In [14], the inhibition is 0%.
As for `O=C(NCc1ncc(C(F)(F)F)cc1Cl)c1ccc2c(c1)C1(CCS(=O)(=O)CC1)[C@@H](C1CC1)N2S(=O)(=O)c1ccc(F)cc1` [BAY-786], the inhibition in data set [15] was -8.4%.
